Key:
[1] = molecular target: dephosphorylated FGFR1 (SEQ ID NO: 1, amino acids 458 to 765) (Homo sapiens (Human), UniProt P11362); assay: FGFR enzyme binding assay (HTRF tracer displacement), FGFR1; details: 5 nM dephosphorylated FGFR1, average of multiple determinations if made
Summary of the method: (§1)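 Compounds were tested for displacement of a tracer from human FGFR kinase in a time-resolved FRET binding format. After 60 minutes at 22° C, signal was read at two wavelengths and converted to percent of control, normalised between untreated wells and 1 μM reference inhibitor.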

[2] = molecular target: phosphorylated FGFR3 (SEQ ID NO: 5, amino acids 449 to 759) (Homo sapiens (Human), UniProt P22607); assay: FGFR enzyme binding assay (HTRF tracer displacement), FGFR3; details: 5 nM phosphorylated FGFR3, average of multiple determinations if made
phosphorylated FGFR3 (SEQ ID NO: 5, amino acids 449 to 759), sequence (P22607 449-759): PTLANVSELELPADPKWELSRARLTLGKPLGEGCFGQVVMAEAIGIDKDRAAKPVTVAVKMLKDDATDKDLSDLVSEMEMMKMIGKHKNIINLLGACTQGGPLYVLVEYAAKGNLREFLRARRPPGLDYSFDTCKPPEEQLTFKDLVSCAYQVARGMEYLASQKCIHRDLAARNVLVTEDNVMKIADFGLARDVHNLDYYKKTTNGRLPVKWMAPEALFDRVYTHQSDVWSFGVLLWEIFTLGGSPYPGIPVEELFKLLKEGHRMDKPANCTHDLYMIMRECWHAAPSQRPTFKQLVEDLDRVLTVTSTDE
Summary of the method: as §1

[3] = molecular target: recombinant human FGFR1 catalytic domain (amino acids 308-731) (Homo sapiens (Human), UniProt P11362); assay: FGFR1 enzyme activity assay (LanthaScreen TR-FRET); format: biochemical; details: 20 min incubation at 22° C., average of multiple determinations if made, read-out: FGFR1 Enz FRET IC50
recombinant human FGFR1 catalytic domain (amino acids 308-731), sequence (P11362 other isoform, or with tags, fused parts or gaps): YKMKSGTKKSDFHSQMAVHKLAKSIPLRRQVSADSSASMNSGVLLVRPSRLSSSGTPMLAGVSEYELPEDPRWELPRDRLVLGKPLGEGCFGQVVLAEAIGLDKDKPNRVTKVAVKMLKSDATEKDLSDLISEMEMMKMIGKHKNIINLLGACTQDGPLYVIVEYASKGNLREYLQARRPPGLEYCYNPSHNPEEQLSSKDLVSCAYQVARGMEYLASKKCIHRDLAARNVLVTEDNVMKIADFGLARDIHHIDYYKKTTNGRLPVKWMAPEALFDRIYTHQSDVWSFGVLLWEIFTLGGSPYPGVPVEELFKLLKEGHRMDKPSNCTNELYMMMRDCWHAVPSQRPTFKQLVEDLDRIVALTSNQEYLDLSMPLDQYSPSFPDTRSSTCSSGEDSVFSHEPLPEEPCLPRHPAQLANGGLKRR
Summary of the method: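 His-tagged FGFR1 kinase domain with 100 nM Alexa Fluor 647-poly-GT peptide and ATP in pH 7.5 HEPES/MgCl2 buffer with 2% DMSO, 20 min at 22 °C. Quenched with EDTA plus 2 nM Eu-PY20 antibody and read after 60 min. IC50 comes from a 4-parameter fit of percent of control.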

[4] = molecular target: recombinant human FGFR2 cytoplasmic domain (amino acids 403-822) (Homo sapiens (Human), UniProt P21802); assay: FGFR2 enzyme activity assay (LanthaScreen TR-FRET); format: biochemical; details: 15 μM ATP, 20 min incubation at 22° C., average of multiple determinations if made, read-out: FGFR2 Enz FRET IC50
recombinant human FGFR2 cytoplasmic domain (amino acids 403-822), sequence (P21802 402-821): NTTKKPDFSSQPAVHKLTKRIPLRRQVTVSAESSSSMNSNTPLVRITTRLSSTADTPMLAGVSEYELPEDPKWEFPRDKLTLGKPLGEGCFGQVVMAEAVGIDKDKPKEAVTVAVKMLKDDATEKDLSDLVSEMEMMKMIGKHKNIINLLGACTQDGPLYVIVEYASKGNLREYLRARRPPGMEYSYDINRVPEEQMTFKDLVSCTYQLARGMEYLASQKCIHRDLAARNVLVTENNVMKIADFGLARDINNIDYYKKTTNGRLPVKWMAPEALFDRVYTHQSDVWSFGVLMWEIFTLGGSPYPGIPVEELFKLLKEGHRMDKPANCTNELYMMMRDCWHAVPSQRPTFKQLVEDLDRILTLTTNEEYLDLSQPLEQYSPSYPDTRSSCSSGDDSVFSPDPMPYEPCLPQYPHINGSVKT
Summary of the method: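 His-tagged FGFR2 cytoplasmic domain ([…]) with 100 nM Alexa Fluor 647-poly-GT peptide and 15 μM ATP in HEPES/MgCl2/Triton buffer, pH 7.5, 2% DMSO, 20 min at 22 °C. EDTA-quenched, Eu-PY20 antibody added, TR-FRET read after 60 min.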

[5] = molecular target: FGFR1 (SEQ ID NO: 1, amino acids 458-765) (Homo sapiens (Human), UniProt P11362); assay: LC/MS FGFR1 kobs assay (covalent protein modification); format: binding; details: 500 nM FGFR1, 3 μM compound
FGFR1 (SEQ ID NO: 1, amino acids 458-765), sequence (P11362 458-765): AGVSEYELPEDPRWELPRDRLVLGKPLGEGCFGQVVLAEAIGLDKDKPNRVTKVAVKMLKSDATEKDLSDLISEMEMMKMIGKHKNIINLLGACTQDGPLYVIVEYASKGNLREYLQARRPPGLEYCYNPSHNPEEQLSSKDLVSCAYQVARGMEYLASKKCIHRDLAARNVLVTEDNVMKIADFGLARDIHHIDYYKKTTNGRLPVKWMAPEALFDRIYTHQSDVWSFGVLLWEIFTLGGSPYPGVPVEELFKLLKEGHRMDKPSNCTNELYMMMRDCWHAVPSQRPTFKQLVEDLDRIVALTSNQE
Summary of the method: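 Covalent labeling of FGFR1 kinase domain (aa 458-765) tracked over time by intact-protein LC/MS after formic acid quench. kobs derived by fitting DMSO-normalized percent unmodified FGFR1 to an exponential decay model.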

[6] = molecular target: FGFR3 (SEQ ID NO: 5, amino acids 449-759) (Homo sapiens (Human), UniProt P22607); assay: LC/MS FGFR3 kobs assay (covalent protein modification); format: binding; details: 500 nM FGFR3, 3 μM compound
FGFR3 (SEQ ID NO: 5, amino acids 449-759), sequence (P22607 449-759): as the sequence (P22607 449-759) above
Summary of the method: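 Timed reactions were stopped with 0.4% formic acid, and covalent adduct formation was measured by LC/MS on a Q-TOF with deconvolution of protein masses. Modified signal was normalized to DMSO-control unmodified protein at each time point; percent unmodified protein was fit to exponential decay to give kobs.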

dephosphorylated FGFR1 (SEQ ID NO: 1, amino acids 458 to 765), sequence (P11362 458-765): as the sequence (P11362 458-765) above

Row | Structure (SMILES) | IC50 [1] [nM] | IC50 [2] [nM] | IC50 [3] [nM] | IC50 [4] [nM] | FGFR1 Enz kobs [5] [min⁻¹] | FGFR3 Enz kobs [6] [min⁻¹]
1 | C=CC(=O)N1CC(CN2CCC(n3ncc(-c4cc(OC)c5c(Cl)cnn5c4)c3C)CC2)C1 [Example 118, 1-(3-((4-(4-(3-chloro-4-methoxypyrazolo[1,5-a]pyridin-6-yl)-5-methyl-1H-pyrazol-1-yl)piperidin-1-yl)methyl)azetidin-1-yl)prop-2-en-1-one] | 455 | 9 | 551 | 239 | 0.00303 | 0.02502
2 | C=CC(=O)N1CC(CN2CCC(n3ncc(-c4cc(OC)c5c(Cl)cnn5c4)c3C)CC2)C1(C)C (stereo not drawn) [Example 120, 1-(3-((4-(4-(3-chloro-4-methoxypyrazolo[1,5-a]pyridin-6-yl)-5-methyl-1H-pyrazol-1-yl)piperidin-1-yl)methyl)-2,2-dimethylazetidin-1-yl)prop-2-en-1-one] | 400 | 33 | 338 | 39 | 0.00068 | 0.00758
3 | C=CC(=O)N1CC(C(=O)N2CCC(n3cc(-c4cc(OC5CCC5)c5c(C#N)cnn5c4)cn3)CC2)C1 [Example 125, 6-(1-(1-(1-acryloylazetidine-3-carbonyl)piperidin-4-yl)-1H-pyrazol-4-yl)-4-cyclobutoxypyrazolo[1,5-a]pyridine-3-carbonitrile] | 13 | 2 | 4 | 3 | 0.00246 | 0.01842
4 | C=CC(=O)N1CC(C(=O)N2CCC(n3cc(-c4cc(OCC(C)C)c5c(C#N)cnn5c4)cn3)CC2)C1 [Example 128, 6-(1-(1-(1-acryloylazetidine-3-carbonyl)piperidin-4-yl)-1H-pyrazol-4-yl)-4-isobutoxypyrazolo[1,5-a]pyridine-3-carbonitrile] | 38 | 6 | 7 | 5 | 0.00134 | 0.01702
5 | C=CC(=O)N1CC(C(=O)N2CCC(n3cc(-c4cc(C(C)C)c5c(C#N)cnn5c4)cn3)CC2)C1 [Example 129, 6-(1-(1-(1-acryloylazetidine-3-carbonyl)piperidin-4-yl)-1H-pyrazol-4-yl)-4-isopropylpyrazolo[1,5-a]pyridine-3-carbonitrile] | 271 | 34 | 14 | 9 | 0.00148 | 0.01646
6 | C=CC(=O)N1CC(C(=O)N2CCC(n3cc(-c4cc(-c5ccc(NC(=O)C6CC6)cc5F)c5c(C#N)cnn5c4)cn3)CC2)C1 [Example 130, N-(4-(6-(1-(1-(1-acryloylazetidine-3-carbonyl)piperidin-4-yl)-1H-pyrazol-4-yl)-3-cyanopyrazolo[1,5-a]pyridin-4-yl)-3-fluorophenyl)cyclopropane-carboxamide] | 7 | 3 | 3 | 3 | 0.00132 | 0.01127
7 | C=CC(=O)N1CC(C(=O)N2CCC(n3cc(-c4cc(-c5ccccc5F)c5c(C#N)cnn5c4)cn3)CC2)C1 [Example 131, 6-(1-(1-(1-acryloylazetidine-3-carbonyl)piperidin-4-yl)-1H-pyrazol-4-yl)-4-(2-fluorophenyl)pyrazolo[1,5-a]pyridine-3-carbonitrile] | 7 | 1 | 9 | 10 | 0.00146 | 0.01762
8 | C=CC(=O)N1CC(CN2CCC(n3cc(-c4cc(OC)c5c(C#N)cnn5c4)cn3)CC2)C1 [Example 132, 6-(1-(1-((1-acryloylazetidin-3-yl)methyl)piperidin-4-yl)-1H-pyrazol-4-yl)-4-methoxypyrazolo[1,5-a]pyridine-3-carbonitrile] | 71 | 7 | 14 | 13 | 0.00146 | 0.013
9 | C=CC(=O)N1CC(S(=O)(=O)N2CCC(n3cc(-c4cc(OC)c5c(C#N)cnn5c4)cn3)CC2)C1 [Example 134, 6-(1-(1-((1-acryloylazetidin-3-yl)sulfonyl)piperidin-4-yl)-1H-pyrazol-4-yl)-4-methoxypyrazolo[1,5-a]pyridine-3-carbonitrile] | 35 | 2 | 5 | 16 | 0.00288 | 0.02537

Further lines, results first:

Row | IC50 [1] [nM] | IC50 [2] [nM] | IC50 [3] [nM] | IC50 [4] [nM] | FGFR1 Enz kobs [5] [min⁻¹] | FGFR3 Enz kobs [6] [min⁻¹] | Structure (SMILES)
10 | 565 | 8 | 334 | 219 | 0.00359 | 0.04536 | C=CC(=O)N1CC(CN2CCC(n3ncc(-c4cc(OC)c5c(Cl)cnn5c4)c3C)CC2)(OC)C1 [Example 119, 1-(3-((4-(4-(3-chloro-4-methoxypyrazolo[1,5-a]pyridin-6-yl)-5-methyl-1H-pyrazol-1-yl)piperidin-1-yl)methyl)-3-methoxyazetidin-1-yl)prop-2-en-1-one]
11 | 114 | 3 | 28 | 13 | 0.00369 | 0.06393 | C=CC(=O)N1CC(F)(C(=O)N2CCC(n3cc(-c4cc(OC)c5c(Cl)cnn5c4)cn3)CC2)C1 [Example 121, 1-(3-(4-(4-(3-chloro-4-methoxypyrazolo[1,5-a]pyridin-6-yl)-1H-pyrazol-1-yl)piperidine-1-carbonyl)-3-fluoroazetidin-1-yl)prop-2-en-1-one]
12 | 120 | 7 | 28 | 12 | 0.00127 | 0.01396 | C=CC(=O)N1CC(C(=O)N2CCC(n3cc(-c4cc(OC)c5c(Cl)cnn5c4)cn3)CC2)C1 [Example 122, 1-(3-(4-(4-(3-chloro-4-methoxypyrazolo[1,5-a]pyridin-6-yl)-1H-pyrazol-1-yl)piperidine-1-carbonyl)azetidin-1-yl)prop-2-en-1-one]
13 | 221 | 22 | 40 | 13 | 0.00126 | 0.01169 | C=CC(=O)N1CC(C)(C(=O)N2CCC(n3cc(-c4cc(OC)c5c(Cl)cnn5c4)cn3)CC2)C1 [Example 123, 1-(3-(4-(4-(3-chloro-4-methoxypyrazolo[1,5-a]pyridin-6-yl)-1H-pyrazol-1-yl)piperidine-1-carbonyl)-3-methylazetidin-1-yl)prop-2-en-1-one]
14 | 119 | 9 | 38 | 17 | 0.00241 | 0.02484 | C=CC(=O)N1CC(OC)(C(=O)N2CCC(n3cc(-c4cc(OC)c5c(Cl)cnn5c4)cn3)CC2)C1 [Example 124, 1-(3-(4-(4-(3-chloro-4-methoxypyrazolo[1,5-a]pyridin-6-yl)-1H-pyrazol-1-yl)piperidine-1-carbonyl)-3-methoxyazetidin-1-yl)prop-2-en-1-one]
15 | 147 | 11 | 13 | 6 | 0.0028 | 0.01992 | C=CC(=O)N1CC(C(=O)N2CCC(n3cc(-c4cc(OCC)c5c(C#N)cnn5c4)cn3)CC2)C1 [Example 126, 6-(1-(1-(1-acryloylazetidine-3-carbonyl)piperidin-4-yl)-1H-pyrazol-4-yl)-4-ethoxypyrazolo[1,5-a]pyridine-3-carbonitrile]
16 | 59 | 10 | 7 | 5 | 0.00133 | 0.01654 | C=CC(=O)N1CC(C(=O)N2CCC(n3cc(-c4cc(OC(C)C)c5c(C#N)cnn5c4)cn3)CC2)C1 [Example 127, 6-(1-(1-(1-acryloylazetidine-3-carbonyl)piperidin-4-yl)-1H-pyrazol-4-yl)-4-isopropoxypyrazolo[1,5-a]pyridine-3-carbonitrile]
